{
  "source": "patent US20250352464A1",
  "about": "“TOPICAL COMPOSITIONS AND METHODS FOR TREATING DERMATOPOROSIS” (GALDERMA HOLDING SA, priority 2023, published 2025)",
  "key": {"[1]": {"tested_on": "human primary adult dermal fibroblasts and human primary adult dermal keratinocytes", "conditions": "24 h", "protocol": "To determine suitable dosing of Centella asiatica extract and mandelic acid, human primary adult dermal fibroblasts and human primary adult dermal keratinocytes were purchased from ZenBio (https://www.zen-bio.com/, Durham, NC) and plated as per the provided ZenBio protocols in the recommended media from ZenBio.\nApproximately 10k cells were plated per well in each well of a 96-well plate. […] Centella asiatica extract concentrations ranged from 0.00025% to 0.25%, in 2× steps. […] After 24 hours of treatment, an alamar blue assay was performed. The plate was then read in an Envision plate reader with 560 nm excitation and 590 nm emission filters to determine cell viability."}, "human keratinocytes": {"tested_on": "human keratinocytes", "test": "in vitro gene expression analysis (RNA sequencing) in keratinocytes", "assay_type": "cell-based", "conditions": "72 hrs, mandelic acid 0.05%", "text": "Genes were annotated using the Reactome Database."}, "[2]": {"conditions": "human keratinocytes grown to confluence, Centella asiatica extract 0.005%, combination same concentrations, vs untreated cells"}},
  "data": [
    {"compound": "O=C(O)C(O)c1ccccc1", "note": "(stereo not drawn) [Mandelic Acid, mandelic acid]", "values": [
      {"measurement": "highest concentration not resulting in cytotoxicity", "setting": "[1]", "result": 0.05, "unit": "%"},
      {"measurement": "Modulation of Gene Expression (Fold Change): CEBPB", "setting": "human keratinocytes; [2]", "result": "−2.45", "unit": "Fold Change"},
      {"measurement": "Modulation of Gene Expression (Fold Change): HIST1H2BD", "setting": "human keratinocytes; [2]", "result": 0.55, "unit": "Fold Change"},
      {"measurement": "Modulation of Gene Expression (Fold Change): HIST1H2BG", "setting": "human keratinocytes; [2]", "result": 0.45, "unit": "Fold Change"},
      {"measurement": "Modulation of Gene Expression (Fold Change): HIST1H3D", "setting": "human keratinocytes; [2]", "result": "−0.23", "unit": "Fold Change"},
      {"measurement": "Modulation of Gene Expression (Fold Change): HIST1H4E", "setting": "human keratinocytes; [2]", "result": 0.60, "unit": "Fold Change"},
      {"measurement": "Modulation of Gene Expression (Fold Change): HIST1H4H", "setting": "human keratinocytes; [2]", "result": "−0.54", "unit": "Fold Change"},
      {"measurement": "Modulation of Gene Expression (Fold Change): IL1B", "setting": "human keratinocytes; [2]", "result": 1.73, "unit": "Fold Change"},
      {"measurement": "Modulation of Gene Expression (Fold Change): IL8", "setting": "human keratinocytes; [2]", "result": "−1.46", "unit": "Fold Change"},
      {"measurement": "Modulation of Gene Expression (Fold Change): TNF", "setting": "human keratinocytes; [2]", "result": "−2.69", "unit": "Fold Change"},
      {"measurement": "Modulation of Gene Expression (Fold Change): UBB", "setting": "human keratinocytes; [2]", "result": "−3.87", "unit": "Fold Change"},
      {"measurement": "Modulation of Gene Expression (Fold Change): UBC", "setting": "human keratinocytes; [2]", "result": "−1.09", "unit": "Fold Change"},
      {"measurement": "Modulation of Gene Expression (Fold Change): UBE2C", "setting": "human keratinocytes; [2]", "result": 0.51, "unit": "Fold Change"},
      {"measurement": "expression of p15 (CDKN2B)", "setting": "human keratinocytes; human keratinocytes, Centella 0.005%, FIG. 5", "result": "upregulate"},
      {"measurement": "pro-inflammatory gene expression (MMP2, HSPA8, CSF2RA, CXCL1, IL2RB, NFKBIA, PTG52)", "setting": "human keratinocytes; human keratinocytes, Centella 0.005%, FIGS. 4A-4G", "result": "significantly downregulated"}
    ]}
  ]
}
